# Data published in patent US20100273651A1 (priority 2007, published 2010).
# Like-named read-outs stand apart in the source and are kept apart here.
# Legend:
# Septoria tritici [1] = experiment: Use example No. 3: activity against Septoria tritici in the microtiter test (Septtr); assay type: cell-based; settings: relative growth vs active compound-free control (100%), 405 nm, day 7
# Phakopsora pachyrhizi = experiment: Use Example 1: curative activity against soybean rust, greenhouse (Phakpa K1); assay type: in vivo; settings: soybean seedlings sprayed 24 h after inoculation, visual rating after 14 days, untreated 90
# Procedure: (§1) The active compounds were prepared separately or jointly as a stock solution comprising 25 mg of active compound which was made up to 10 ml using a mixture of acetone and/or DMSO and the emulsifier Uniperolt EL (wetting agent having emulsifying and dispersing action based on ethoxylated alkyl phenols) in a volume ratio of solvent/emulsifier of 99:1. The mixture was then made up to 100 ml with water. This stock solution was diluted with the solvent/emulsifier/water mixture described to give the concentration of active compounds stated below. Alternatively, the active compounds were used as a commercial finished formulation and diluted with water to the concentration of active compounds stated.
# Leaves of potted soybean seedlings were inoculated with a spore suspension of soybean rust (Phakpsora pachyrhizi). The pots were then placed in a chamber with high atmospheric humidity (90 to 95%) and at 23 to 27° C. for 24 hours. During this time, the spores germinated and the germ tubes penetrated into the leaf tissue. The infected plants were then sprayed to runoff point with the active compound solution described above at the active compound concentration stated below. After the spray coating had dried on, the test plants were cultivated in a greenhouse at temperatures between 23 and 27° C. and 60 to 80% relative atmospheric humidity for 14 days. The extent of the rust fungus development on the leaves was then determined visually in percent infection.
# Septoria tritici [2] = experiment: Use Example 2: protective activity against Septoria leaf spot of wheat, greenhouse (Septtr P2); assay type: in vivo; settings: wheat seedlings inoculated 2 days after spraying, % infection of total leaf area after 21 days, untreated 90
# Procedure: as §1
# Leaves of potted wheat seedlings were sprayed to runoff point with an aqueous suspension having the active compound concentration stated below. 2 days after the spray coating had dried on, they were inoculated with an aqueous spore suspension of Septoria tritici. The test plants were then placed in a greenhouse at temperatures between 20 and 24° C. and a relative atmospheric humidity close to 100% for 4 days and then at temperatures between 18 and 22° C. and an atmospheric humidity of about 70%. After 21 days, the extent of the development of the disease was determined visually in % infection of the total leaf area.
# Pyricularia oryzae = assay type: cell-based
# Leptno = experiment: Comparative experiments: growth of Leptno (microtest, method not described); assay type: cell-based; settings: comparative experiments against prior-art compound
# [3] = relative growth vs active compound-free control (100%), 405 nm, day 7
# [4] = comparative experiments against prior-art compound
compound,measurement,setting,value
"1,2-bis[1-rel-(2S,3R)-2-(2-chlorophenyl)-3-(2,4-dichlorophenyl)oxiran-2-ylmethyl-1H-1,2,4-triazole-5-yl]disulfane [Compound 14]",Growth in % at 31 ppm for Septtr,Septoria tritici [1],4%
"1-[rel-(2S,3R)-2-(2-chlorophenyl)-3-(2,4-dichlorophenyl)oxiran-2-ylmethyl]-1H-1,2,4-triazole-5(4H-6-thione [Compound 2]",Infection in % at 150 ppm for Phakpa K1,Phakopsora pachyrhizi,3%
same,Infection in % at 150 ppm for Septtr P2,Septoria tritici [2],10%
same,Growth in % at 31 ppm for Pyrior,Pyricularia oryzae; [3],5%
"S=c1[nH]cnn1C[C@]1(c2ccccc2)O[C@@H]1c1ccc(Cl)c(Cl)c1Cl (relative stereo) [Compound 4, 1-[rel-(2S,3R)-2-phenyl-3-(2,3,4-trichlorophenyl)oxiran-2-ylmethyl]-1H-1,2,4-triazole-5(4H)-thione]",Infection in % at 150 ppm for Phakpa K1,Phakopsora pachyrhizi,0%
same,Infection in % at 150 ppm for Septtr P2,Septoria tritici [2],15%
"CSc1ncnn1C[C@]1(c2ccccc2Cl)O[C@@H]1c1ccc(Cl)cc1Cl (relative stereo) [Compound 5, 1-[rel-(2S,3R)-2-(2-chlorophenyl)-3-(2,4-dichlorophenyl)oxiran-2-ylmethyl]-5-(methylthio)-1H-1,2,4-triazole]",Growth in % at 31 ppm for Septtr,Septoria tritici [1],0%
same,Growth in % at 31 ppm for Pyrior,Pyricularia oryzae; [4],0%
"CSc1ncnn1C[C@]1(c2ccc(F)cc2)O[C@@H]1c1cccc(Cl)c1F (relative stereo) [Compound 7, 1-[rel-(2S,3R)-3-(3-chloro-2-fluorophenyl)-2-(4-fluorophenyl)oxiran-2-ylmethyl]-5-(methylthio)-1,2,4-triazole]",Infection in % at 600 ppm for Phakpa K1,Phakopsora pachyrhizi; 600 ppm,0%
"CS(=O)(=O)c1ncnn1C[C@]1(c2ccccc2Cl)O[C@@H]1c1ccc(Cl)cc1Cl (relative stereo) [Compound 8, 1-[rel-(2S,3R)-2-(2-chlorophenyl)-3-(2,4-dichlorophenyl)-oxiran-2-ylmethyl]-5-(methylsulfonyl)-1H-1,2,4-triazole]",Growth in % at 31 ppm for Pyrior,Pyricularia oryzae; [3],8%
"CC(=O)Sc1ncnn1C[C@]1(c2ccccc2Cl)O[C@@H]1c1ccc(Cl)cc1Cl (relative stereo) [Compound 9, S-1-[rel-(2S,3R)-2-(2-chlorophenyl)-3-(2,4-dichorophenyl)oxiran-2-ylmethyl]-1H-1,2,4-triazole-5-ylethanethioate]",Growth in % at 31 ppm for Pyrior,Pyricularia oryzae; [3],1%
"CC(=O)Sc1ncnn1C[C@]1(c2ccccc2)O[C@@H]1c1ccc(Cl)c(Cl)c1Cl (relative stereo) [Compound 10, S-1-[rel-(2S,3R)-2-phenyl)-3-(2,3,4-trichlorophenyl)oxiran-2-ylmethyl]-1H-1,2,4-triazole-5-yl ethanethioate]",Growth in % at 31 ppm for Septtr,Septoria tritici [1],5%
"COC(=O)Sc1ncnn1C[C@]1(c2ccccc2Cl)O[C@@H]1c1ccc(Cl)cc1Cl (relative stereo) [Compound 11, S-{2-[2-(2-chlorophenyl)-3-(2,4-dichlorophenyl)oxiranylmethyl]-2H-[1,2,4]triazole-3-yl}methyl rel-(2S,3R)-thiocarbonate]",Growth in % at 31 ppm for Pyrior,Pyricularia oryzae; [3],3%
"N#CSc1ncnn1C[C@]1(c2ccccc2Cl)O[C@@H]1c1ccc(Cl)cc1Cl (relative stereo) [Compound 12, 1-[rel-(2S,3R)-2-(2-chlorophenyl)-3-(2,4-dichlorophenyl)oxiran-2-ylmethyl]-5-thlocyanato-1H-1,2,4-triazole]",Infection in % at 150 ppm for Phakpa K1,Phakopsora pachyrhizi,0%
same,Infection in % at 150 ppm for Septtr P2,Septoria tritici [2],10%
"[Na+].[S-]c1ncnn1C[C@]1(c2ccccc2Cl)O[C@@H]1c1ccc(Cl)cc1Cl (relative stereo) [Compound 13, sodium rel-(2S,3R)-2-(2-chlorophenyl)-3-(2,4-dichlorophenyl)oxiran-2-ylethyl]-1H-[1,2,4]triazole-5-thiolate]",Growth in % at 31 ppm for Pyrior,Pyricularia oryzae; [3],19%
same,Growth in % at 31 ppm for Leptno,Leptno,19%
"CSc1ncnn1C[C@]1(c2ccccc2Cl)O[C@@H]1c1ccccc1Cl [WO9638440, p. 14 (5th compound), reference compound]",Growth in % at 31 ppm for Pyrior,Pyricularia oryzae; [4],83%
"[Na+].[S-]c1ncnn1C[C@]1(c2ccccc2Cl)O[C@@H]1c1ccccc1Cl [WO9741107, p. 50 (5th compound), reference compound]",Growth in % at 31 ppm for Leptno,Leptno,51%
